From patent publication US8637462B2, “Methods for reducing platelet counts and/or platelet adhesion by administering a GC-B receptor agonist” (Mayo Foundation for Medical Education and Research, priority 2011, dated 2014)
Entries after “also recorded” stand apart in the source; their conditions may differ.

Columns and labels:
tubulin [1] = experiment: Tubulin polymerization assay; assay type: biochemical; details: nucleation, growth and steady state phases; FIG. 11
Protocol: To demarcate whether the effects of CNP on microtubules was direct or indirect, a microtubule polymerization assay from cytoskeleton was utilized as per manufacturer's protocol. The assay studied all three phases of microtubule formation, namely nucleation, growth, and steady state equilibrium.
A 96-well plate was warmed in the incubator to 37° C. for 10 minutes. During this time, 10× stock solutions of compounds to be tested were prepared. 5 μL of control buffer, 5 μL of the 10× paclitaxel stock, and 5 μL of the 10× test compound were added to their respective wells. Next, the 96 well plate was placed back into warm plate reader for 1 minute. Finally, 50 μL of the tubulin reaction mix was added to each of the wells as quickly as possible, and the plate reader was started.

actin = experiment: Platelet spreading assay, actin staining; assay type: cell-based; details: FIG. 10
Protocol: (§1) The following was performed to determine if CNP could affect cytoskeletal proteins such as tubulin and/or actin. To delineate this function of CNP, human platelets were either treated with the Lbab polypeptide or CNP and were placed on slides using cytospin Immunocytochemistry was performed with anti-tubulin or anti-actin antibodies.
(§2) To confirm these findings, tubulin and actin also were stained on platelets that were viable and functionally active using a spreading assay.

tubulin [2] = experiment: Platelet spreading assay, tubulin staining; assay type: cell-based; details: FIG. 10
Excerpt: as §2

tubulin [3] = experiment: Immunocytochemistry of tubulin in platelets (cytospin); assay type: cell-based; details: human platelets; FIG. 9
Protocol: as §1
PRP was spun down in a cytospin at 1000 rpm for 2 minutes to obtain slides of mouse/human platelets. These slides were fixed and blocked with 10% normal goat serum and incubated with mouse anti-tubulin antibody at 1:700 (Sigma) in PBS. Goat anti-mouse Alexa Fluor 594 at 1:500 (Molecular Probes) was used to visualize the tubulin. Matched negative controls also were used.

[4] = tested on: GC-B present on megakaryocytes; experiment: cGMP production in megakaryocytes (BIOTRAK cGMP enzyme immunoassay); assay type: cell-based, mouse; details: 30 minutes at 37° C.; FIG. 3
Excerpt: Primary hematopoietic progenitor cells were isolated from mouse fetal livers of E13.5 embryos (C57B1/6) or from femurs and tibias of C57B1/6 mice using the EasySep negative selection mouse hematopoietic progenitor enrichment kit (Stem Cell Technologies, Vancouver, BC). The progenitor cells were then expanded for two days in serum free expansion media containing 50% RPMI using standard techniques to generate megakaryocytes (Huang et al., J. Clin. Invest., 117(12):3890-9 (2007) and Muntean and Crispino, Blood, 106(4):1223-31 (2005)). The purity of the megakaryocytes was assessed using acetylcholinesterase (AchE) staining using standard protocols and FACS with CD41 (Emfret Analytics).
The following was performed to determine if GC-B present on megakaryocytes is functional and responsive to CNP. Megakaryocytes were treated with either CNP or a single residue mutant CNP designated Lbab for 30 minutes at 37° C. with 5% CO2 in IMDM media supplemented with 1% Nutridoma, penicillin, streptomycin, L-glutamine, and recombinant TPO. The Lbab polypeptide (FIG. 2) is described elsewhere (Yoder et al., Peptides, 29(9):1575-81 (2008)).
After the incubation, the cells were lysed, and the amount of cGMP was measured using a BIOTRAK cGMP enzyme immunoassay system Kit (GE Healthcare Bio-Sciences Corp.).

platelets [5] = experiment: cGMP production in washed platelets; assay type: cell-based, mouse; details: 30 minutes at 37° C. in Tyrode's buffer with 1 mM Ca+2; FIG. 6
Protocol: Platelet isolation was adapted from studies described elsewhere (Boylan et al., Blood, 108(3):908-14 (2006); Moraes et al., J. Thromb. Haemost., 8(11):2530-41 (2010); and Bougie et al., Blood, 116(16):3033-8 (2010)). Briefly, C57BL/6 mice were anesthetized with ketamine/xylazine. Blood was obtained from the vena cava and collected into 3.8% sodium citrate. The whole blood was then diluted with equal volumes of Tyrode's buffer containing PGE1 (50 ng/mL), glucose (1 mg/mL), and BSA (2.5 mg/mL) before being spun at 280×g to obtain platelet rich plasma (PRP). The upper […] of the PRP was collected and spun for 10 minutes to collect the platelets. The platelets were then washed with Tyrode's buffer before any analysis was performed. The platelets were counted, visualized by microscopy, and then used for FACS analysis, immunostaining, and western blotting. CD41, CD42D, and GC-B expression was detected by FACS (FIG. 5, middle panel).
The effect of CNP on cGMP production in platelets was studied. Washed platelets were treated with CNP or the mutant Lbab polypeptide for 30 minutes at 37° C. with 5% CO2 in Tyrode's buffer with 1 mM Ca^+2. After the incubation, the cells were lysed, and the amount of cGMP was calculated according to the standard curve that was generated from parallel reactions within the same experiment.

platelets [6] = experiment: Platelet adhesion to fibronectin; assay type: cell-based, human or C57B1/6 mice; details: CNP-treated vs Lbab polypeptide-treated
Protocol: (§3) The role of CNP on platelet aggregation and platelet adhesion to fibrinogen, fibronectin, and collagen were assessed. Human platelets or platelets from C57B1/6 mice were isolated and treated with either CNP or the Lbab polypeptide for 30 minutes at 37° C. with 5% CO2. Following treatment, the platelets were gently added to cover slips pre-blocked with 1% BSA and pre-coated with fibrinogen, fibronectin, or collagen (50 μg/mL, CHRONOLOG Corp., Havertown, Pa.). Ca^+2 and Mg^+2 were added to 1 mM and 2 mM, respectively, before incubation at 37° C. for 30 minutes. The platelets were then fixed and permeabilized before staining with TRITC Phalloidin (0.5 μg/mL; Sigma) for an hour. The platelets were then gently washed a couple of times with PBS and mounted in Vectashield mounting medium (Vector laboratories, Burlingame, Calif.) and sealed with nail polish as described elsewhere (Moraes et al., J. Thromb. Haemost., 8(11):2530-41 (2010); and Bougie et al., Blood, 116(16):3033-8 (2010)). Images were acquired from five consecutive fields using a Zeiss Axioscop microscope (Carl Zeiss, Oberkochen, Germany) with a Zeiss 100× oil-immersion lens. The images were analyzed using ImageJ software.

megakaryocytes = experiment: Megakaryocyte colony formation assay (MegaCult-C); assay type: cell-based, mouse; details: bone marrow cells, 6 to 8 days; FIG. 4
Protocol: To determine the effect of CNP on the colony forming ability of megakaryocytes, colony formation assays were conducted using MegaCult®-C (StemCell Tech) as per the manufacturer's protocol. Mice were euthanized, and bone marrow was collected from femurs and tibias by flushing the bones multiple times with IMDM. Once a single cell suspension was achieved, the cells were added to MegaCult®-C medium containing cytokines and collagen. The cell suspension was then dispensed into the chamber slide at the concentration of 20,000 cells/well and incubated at 37° C. with 5% CO2 and >95% humidity for 6 to 8 days. The cells were then dehydrated and fixed with acetone followed by acetylcholinesterase staining. The colonies were scored using a 5× objective, and 10× objective was used to examine colonies in greater detail.

platelets [7] = experiment: Platelet adhesion to collagen; assay type: cell-based, human or C57B1/6 mice; details: for number of platelets adhered to collagen: n=5; for platelet adhesion to collagen (in words): FIG. 7; for pseudopodia formation of platelets adhered to collagen: light microscopy
Protocol: as §3
Platelets were isolated and treated with either CNP or the mutant Lbab polypeptide for 30 minutes at 37° C. with 5% CO2. Following treatment, the platelets were gently added to cover slips pre-blocked with 1% BSA and pre-coated with collagen ([…], CHRONOLOG-corporation). Ca^+2 and Mg^+2 were added to 1 mM and 2 mM, respectively, before incubation at 37° C. for 30 minutes. The platelets were then fixed and permeabilized before staining with TRITC Phalloidin (0.5 μg/mL; Sigma) for an hour. The platelets were then gently washed a couple of times with PBS and then mounted in Vectashield mounting medium (Vector laboratories, Burlingame, Calif.) and sealed with nail polish. Images were acquired from five consecutive fields using Zeiss Axioscop microscope (Carl Zeiss, Oberkochen, Germany) with a Zeiss 100× oil-immersion lens and analyzed using ImageJ software.
Cells were placed in Trump's fixative, 4% formaldehyde: 1% glutaraldehyde for 1 hour or longer at 4° C. After two rinses in 0.1 M sodium phosphate buffer (pH 7.2), samples were dehydrated in a graded ethanol series to 100% ethanol at which time they were critical point dried with liquid carbon dioxide. They were then mounted on specimen stubs, sputter-coated with gold-palladium, and examined with a Hitachi S4700 scanning electron microscope.

platelets [8] = experiment: Platelet aggregation (lumi-aggregometer); assay type: cell-based; details: data not shown
Protocol: The role of CNP on platelet aggregation and platelet adhesion to fibrinogen, fibronectin, and collagen were assessed. Human platelets or platelets from C57B1/6 mice were isolated and treated with either CNP or the Lbab polypeptide for 30 minutes at 37° C. with 5% CO2. Following treatment, the platelets were gently added to cover slips pre-blocked with 1% BSA and pre-coated with fibrinogen, fibronectin, or collagen (50 μg/mL, CHRONOLOG Corp., Havertown, Pa.). Ca^+2 and Mg^+2 were added to 1 mM and 2 mM, respectively, before incubation at 37° C. for 30 minutes. The platelets were then fixed and permeabilized before staining with TRITC Phalloidin (0.5 μg/mL; Sigma) for an hour. […] The images were analyzed using ImageJ software.
Platelet aggregation was performed at 37° C. in lumi-aggregometer in the presence of luciferin-luciferase to simultaneously measure light transmission and secretion of dense granule-derived ATP. […] Platelet aggregation and secretion was measured in a lumi-aggregometer (Chrono-Log, Havertown, Pa.) for 1 minute following which the polypeptide (CNP or Lbab) was added to the platelets, and aggregation and secretion were measured once again for 2 minutes in order to determine if the polypeptide itself activates the platelets. […] Aggregation and secretion were measured for 15 minutes.

platelets [9] = experiment: Platelet adhesion to fibrinogen; assay type: cell-based, human or C57B1/6 mice; details: CNP-treated vs Lbab polypeptide-treated
Protocol: as §3

Chain of GC-B present on megakaryocytes (Q6VVW5 23-1047 limits assumed): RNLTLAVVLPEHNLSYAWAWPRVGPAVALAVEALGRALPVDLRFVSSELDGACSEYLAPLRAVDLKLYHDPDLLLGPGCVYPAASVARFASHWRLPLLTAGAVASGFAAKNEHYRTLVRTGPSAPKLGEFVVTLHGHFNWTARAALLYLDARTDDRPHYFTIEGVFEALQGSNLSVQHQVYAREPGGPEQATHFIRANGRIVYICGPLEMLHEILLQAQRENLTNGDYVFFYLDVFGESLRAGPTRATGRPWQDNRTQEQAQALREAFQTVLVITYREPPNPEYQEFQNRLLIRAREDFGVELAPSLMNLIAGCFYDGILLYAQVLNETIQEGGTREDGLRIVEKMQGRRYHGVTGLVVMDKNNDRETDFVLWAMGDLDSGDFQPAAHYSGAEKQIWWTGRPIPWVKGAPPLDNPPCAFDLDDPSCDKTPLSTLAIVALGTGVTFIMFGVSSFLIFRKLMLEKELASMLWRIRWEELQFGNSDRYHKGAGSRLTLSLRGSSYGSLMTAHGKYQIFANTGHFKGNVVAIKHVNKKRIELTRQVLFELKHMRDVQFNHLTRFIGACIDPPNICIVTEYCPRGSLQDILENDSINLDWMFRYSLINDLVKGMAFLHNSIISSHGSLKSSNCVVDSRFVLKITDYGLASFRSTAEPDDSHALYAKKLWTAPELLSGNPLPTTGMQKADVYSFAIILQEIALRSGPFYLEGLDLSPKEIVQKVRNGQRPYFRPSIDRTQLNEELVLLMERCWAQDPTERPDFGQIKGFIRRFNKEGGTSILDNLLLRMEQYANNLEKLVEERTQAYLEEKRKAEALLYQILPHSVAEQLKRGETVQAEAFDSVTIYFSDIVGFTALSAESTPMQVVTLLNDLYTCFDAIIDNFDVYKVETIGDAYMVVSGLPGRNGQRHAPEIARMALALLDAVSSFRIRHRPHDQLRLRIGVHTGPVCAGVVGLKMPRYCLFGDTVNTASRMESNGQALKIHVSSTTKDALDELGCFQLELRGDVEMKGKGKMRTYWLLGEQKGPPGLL

## CC(=O)O[C@H]1C(=O)[C@@]2(C)[C@H]([C@H](OC(=O)c3ccccc3)[C@]3(O)C[C@H](OC(=O)[C@H](O)[C@@H](NC(=O)c4ccccc4)c4ccccc4)C(C)=C1C3(C)C)[C@]1(OC(C)=O)CO[C@@H]1C[C@@H]2O [Taxol, paclitaxel, reference compound]
Tubulin [1]
  tubulin polymerization (O.D.): effects on the growth and steady state phases of tubulin polymerization
actin
  actin distribution / function in spreading platelets: minimal effect on actin distribution
Tubulin [2]
  tubulin distribution in spreading platelets: inhibits tubulin distribution in spreading platelets

## c-type natriuretic peptide [CNP]
Tubulin [3]
  marginal band formation (tubulin) within platelets: decreased marginal band formation
[4]
  cGMP production by megakaryocytes: stimulated a dose-dependent increase in cGMP formation
Tubulin [1]
  tubulin polymerization (O.D.): has effects on the growth and steady state phases of tubulin polymerization
Platelets [5]
  cGMP production in platelets: did not affect cGMP levels
Platelets [6]
  adhesion of platelets to fibronectin: no significant difference
megakaryocytes
  megakaryocyte colony formation: inhibited colony formation
  megakaryocyte colony size: significantly affected colony size
Platelets [7]; 500 nM
  number of platelets adhered to collagen: 2451±39
Platelets [7]; 1000 nM
  number of platelets adhered to collagen: 1712±20
Platelets [7]
  platelet adhesion to collagen (in words): attenuated platelet adhesion to collagen
  pseudopodia formation of platelets adhered to collagen: abnormal pseudopodia formation
Platelets [7]; electron microscopy, varying concentrations, FIG. 8
  filopodia of platelets in the presence of collagen: aberrant filopodia
Platelets [8]
  platelet aggregation: unaffected
actin
  actin distribution / function in spreading platelets: minimal effect on actin distribution; also recorded: does not influence actin function significantly
Tubulin [2]
  tubulin distribution in spreading platelets: inhibits tubulin distribution in spreading platelets
Platelets [9]
  adhesion of platelets to fibrinogen: no significant difference

## Lbab: single residue mutant CNP (SEQ ID NO:2) with Arg to Gly substitution, used as control polypeptide (GLSKGCFGLKLDGIGSMSGLGC; Mutant CNP; listed as Homo sapiens) [reference compound]
Tubulin [3]
  marginal band formation (tubulin) within platelets: capable of forming clear marginal bands
[4]
  cGMP production by megakaryocytes: but not the Lbab polypeptide, stimulated cGMP production
Platelets [7]; 500 nM
  number of platelets adhered to collagen: 4536±43
Platelets [7]; 1000 nM
  number of platelets adhered to collagen: 4390±24
Platelets [7]
  platelet adhesion to collagen (in words): near normal platelet adhesion to collagen
  pseudopodia formation of platelets adhered to collagen: normal sprouting of pseudopodia
Tubulin [2]
  tubulin distribution in spreading platelets: does not demonstrate such an affect
